pIC50: −log10 of the molar value. Activity calls are given as the source filed them. The calls are words filed in the database; no cut-off is given here.
How the values were obtained:
[1] = molecular target: T1, Pyruvate kinase PKLR (Homo sapiens, UniProt P30613); assay: Inhibition of full length N-terminal His-tagged human PKL (2 to 543 residues) expressed in Escherichia coli at 10 uM by kinase Glo luminescence based plate reader assay relative to control
Target sequence in this assay (P30613 whole entry, looked up, the tested form may be a part): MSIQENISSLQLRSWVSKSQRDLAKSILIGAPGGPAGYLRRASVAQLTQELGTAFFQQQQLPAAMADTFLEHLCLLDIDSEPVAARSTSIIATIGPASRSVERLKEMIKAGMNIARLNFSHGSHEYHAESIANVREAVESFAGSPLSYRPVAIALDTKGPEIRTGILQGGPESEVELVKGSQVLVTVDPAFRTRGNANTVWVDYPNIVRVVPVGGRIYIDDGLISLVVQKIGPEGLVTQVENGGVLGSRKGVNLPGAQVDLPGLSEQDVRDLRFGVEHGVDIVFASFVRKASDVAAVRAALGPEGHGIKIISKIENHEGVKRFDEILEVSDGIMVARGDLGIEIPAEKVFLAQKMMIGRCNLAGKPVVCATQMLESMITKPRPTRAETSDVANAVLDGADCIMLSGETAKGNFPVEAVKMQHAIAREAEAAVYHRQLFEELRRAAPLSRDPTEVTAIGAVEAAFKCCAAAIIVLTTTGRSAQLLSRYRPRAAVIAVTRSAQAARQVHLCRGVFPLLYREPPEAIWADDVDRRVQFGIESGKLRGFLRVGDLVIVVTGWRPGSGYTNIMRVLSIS

[2] = system: HepG2; assay: Cytotoxicity against PKM2 knock out human HepG2 cells at 1 to 10 uM measured for 24 to 72 hrs; assay type: toxicity, cell-based; settings: hepg2, 10 µM, dose lower 1 µM, time lower 24 hrs, dose upper 10 µM, time upper 72 hrs
[3] = molecular target: T1, Pyruvate kinase PKLR; assay: Inhibition of full length N-terminal His-tagged human PKL (2 to 543 residues) expressed in Escherichia coli by kinase Glo luminescence based plate reader assay
Target sequence in this assay (P30613 whole entry, the tested form may be a part): as the sequence (P30613 whole entry, looked up, the tested form may be a part) above

[4] = molecular target: T1, Pyruvate kinase PKLR; assay: Inhibition of PKR (unknown origin)
Target sequence in this assay (P30613 whole entry, looked up, the tested form may be a part): as above

O=S1(=O)Oc2c(ccc(O)c2O)-c2cc(O)ccc21
inhibition [1]: Active

O=S1(=O)Oc2c(ccc(O)c2O)-c2cc(O)c(O)cc21
Activity [2]: Non-Toxic

O=S1(=O)Oc2cc(O)c(O)c(O)c2-c2cc(O)c(O)cc21
pIC50 [3]: 7.15 | pIC50 [4]: 6.74
